Values of other authors, collected in patent US10092609B2, “Process for preparing medicinal mycological preparations” (priority 2015, dated 2018).

Conditions: in vivo

## CC[C@H](C)C(=O)O[C@H]1C[C@@H](C)C=C2C=C[C@H](C)[C@H](CC[C@@H]3C[C@@H](O)CC(=O)O3)[C@H]21 [lovastatin]
  reduction of “bad” LDL-cholesterol in circulation: about 20%
